{
  "source": "patent US8258182B2",
  "about": "“Substituted 1,3-diphenylpropane derivatives, preparations and uses thereof” (Genfit, priority 2006, dated 2012)",
  "key": {"[1]": {"tested_on": "PPARs target genes (PDK4, ApoCIII, ACO) in the hepatic tissue", "assay": "Hepatic expression of PPAR target genes in E2/E2 mice (quantitative RT-PCR)", "assay_type": "in vivo, mouse", "conditions": "3 and 10 mpk", "description": "The effectiveness of the compounds according to the invention is also evaluated by measuring, in the hepatic tissue, the expression of genes involved in lipid and/or glucids metabolism and in energy dissipation. Each level of genes expression is normalised regarding the expression level of the reference gene 36B4's. The induction factor, i.e. the ratio between the relative signal (induced by the compound according to the invention) and the average of the relative values relating to the control group is then calculated. The higher the induction factor is, the more the compound promotes hepatic gene expression. The final result is expressed as an average of the induction values obtained with each experimental group.\nThe PPARα agonist properties previously measured in vitro should, in the liver, lead to an overexpression of the target genes directly under the control of the PPARα: the genes we have studied in this experiment are PDK-4 (an enzyme involved in glucid metabolism), Apo CIII (an apolipoprotein involved in lipid metabolism), and Acox1 (in mice, Acox1 corresponds to the ACO gene in humans (Acyl Co-enzymeA Oxydase, an enzyme key to the fatty acid β-oxidation mechanism)). Measuring the transcriptional activity of PPARα target genes after a treatment with compounds according to the invention does therefore allow to evaluate the hypolipidemic properties of the compounds according to the invention.\nThe ApoE2/E2 transgenic mice were kept on a 12 hour/12 hour light/dark cycle at a constant temperature of 20±3° C. After a one week acclimatization period, the mice were weighed and divided into groups of 6 animals selected so as to render uniform the distribution of their body weights and plasma lipid rates, determined before the experiment. The tested compounds were suspended in carboxymethylcellulose (Sigma C4888) and administered by intra-gastric tube feeding once a day for 8 days (for compound 1) or 14 days (for compound 8) with the chosen doses. The animals had free access to food and water (standard diet). Taking of food and weight gain are recorded throughout the experiment. At the end of the experiment, the animals were anesthetized after a 4 hour fast, and a blood sample was taken using (EDTA) anticoagulant, then the mice were weighed and euthanized. The plasma was separated by centrifugation at 3000 rotations/minute for 20 minutes. The samples were kept at +4° C.\nLiver samples were removed, frozen in liquid nitrogen, and kept at −80° C. for later analyses.\nTotal RNA is extracted from liver fragments by using the NucleoSpin® 96 RNA kit (Macherey Nagel, Hoerdt, France) according to the manufacturer's instructions.\n1 μg of total RNA (quantified by using the Ribogreen RNA quantification kit (Molecular Probes)) is then reverse-transcripted into complementary DNA by means of a 1 hour reaction at 37° C. in a total volume of 20 μl containing a 1× buffer (Sigma), 1.5 mM of DTT, 0.18 mM of dNTPs (Promega), 200 ng of pdN6 (Amersham), 30U of RNase inhibitor (Sigma), and 1 μl of MMLV-RT (Sigma).\nThe PCR quantitative experiments were carried out using the MyiQ Single-Color Real-Time PCR Detection System (Biorad, Marnes-la-Coquette, France) and were performed using the iQ SYBR Green Supermix kit according to the manufacturer's recommendations, in 96-well trays in 5 μl of a diluted reverse transcription solution at a hybridation temperature of 55° C. The specific primer pairs of the genes studied were used: • PDK4: sense primer: 5′-[…]-3′ (SEQ ID NO: 1) and antisense primer 5′-[…]-3′ (SEQ ID NO: 2)) • ApoCIII: sense primer: 5′-[…]-3′ (SEQ ID NO: 3) and antisense primer 5′-[…]-3′ (SEQ ID NO: 4). • ACO: sense primer: 5′-[…]-3′ (SEQ ID NO: 5) and antisense primer: 5′-[…]-3′ (SEQ ID NO: 6)\nThe quantity of fluorescencet emitted is directly proportional to the quantity of cDNA present at the beginning of the reaction and amplified during the PCR. […]"}, "[2]": {"tested_on": "MCP1 secretion by THP1 monocytes", "assay": "Secretion of MCP1 by THP1 monocytes stimulated with PMA (ELISA)", "assay_type": "cell-based, human", "conditions": "1 μM, 24 hours, PMA 5 ng/ml, vs DMSO alone (FIG. 4-1)", "description": "(§1) The anti-inflammatory effects of the compounds according to the invention were evaluated by measuring the secretion of MCP1 (Monocyte chemotactic protein-1) by THP1 monocytes treated for 24 hours with the compounds according to the invention and stimulated simultaneously with PMA (Phorbol 12-myristate 13-acetate, which promotes an inflammatory response in cells and their differentiation into macrophages).\nas §1, with “of the compound according to” for “of the compounds according to”, “into macrophages). […]” for “into macrophages).”\nThe treatment medium is recovered and the MCP1 concentration is measured using the ELISA kit<<Human MCP-1 ELISA Set>>(BD OptEIA; 555179) in accordance with the manufacturer's recommendation.\nMCP1 is laid on a plate and is recognized by a anti-MCP1 specific antibody. […] The coloration resulting from the enzymating activity is proportional to the quantity of fixed MCP1 and can be measured by a spectrophotometry method. A range is performed from a point representative of a known concentration and from which the MCP1 concentration of each sample is calculated. […]"}},
  "data": [
    {"smiles": "CCCOc1ccc(C(=O)CCc2cc(C)c(OC(C)(C)C(=O)O)c(C)c2)cc1", "note": "[Compound 8, 2-[2,6-dimethyl-4-[3-[4-(propyloxy)phenyl]-3-oxo-propyl]phenoxyl]-2-methylpropanoic acid]", "values": [
      {"measurement": "hepatic expression of the genes coding for PDK4", "setting": "[1]; 14 days (FIG. 2-7)", "result": "significant augmentation"},
      {"measurement": "hepatic expression of the genes coding for ApoCIII", "setting": "[1]; 14 days (FIG. 2-8)", "result": "reduction"},
      {"measurement": "hepatic expression of the genes coding for ACO", "setting": "[1]; 14 days (FIG. 2-9)", "result": "significant augmentation"},
      {"measurement": "MCP1 secreted by monocytes", "setting": "[2]", "result": "significant reduction"}
    ]}
  ]
}
